Assay: Stabilizer screening (colloid stability after precipitation)
Assay type: physicochemical
Details: Compound A 1.0 mg; for Observation: Stable for: at RT
Method: If the colloid solution was stable over 2 hours (no aggregation, sedimentation, crystal forming), and no aggregation occurred, the sample was lyophilized. • If precipitation occurred, however the colloid solution was not stable over the whole solid formulation procedure, other stabilizers were tested. Results

Observation (2 mg PVP10, 1 mL EtOH, 7 mL 0.05 mg/mL SDS solution): Aggregated immediately
Observation (2 mg PVP10, 1 mL EtOH, 7 mL 0.05 mg/mL citric acid solution): Aggregated immediately
Observation (2 mg PVP10, 1 mL EtOH, 7 mL 0.5 mg/mL BAC solution): Aggregated immediately
Observation: Aggregated within (2 mg PVP10, 1 mL EtOH, 7 mL 0.5 mg/mL DSS solution): Aggregated within 1 hour
Observation (2 mg PVP10, 1 mL EtOH, 7 mL 0.5 mg/mL Mannitol solution): Aggregated immediately
Observation (2 mg PVP10, 1 mL EtOH, 7 mL 0.5 mg/mL NaOAc solution): Aggregated immediately
Observation: Aggregated within (2 mg PVP10, 1 mL EtOH, 7 mL 0.5 mg/mL SDS solution): Aggregated within 1 hour
Observation (2 mg PVP10, 1 mL IPA, 4 mL water): Aggregated
Observation (2 mg PVP10, 1 mL MeOH, 4 mL water): Precipitation did not occur
Observation: Colloid, Stable for (2 mg PVP40, 1 mL EtOH, 4 mL water): Colloid, Stable for 15 min
Observation (2 mg PVP40, 1 mL EtOH, 7 mL 0.05 mg/mL BAC solution): Aggregated immediately
Observation (2 mg PVP40, 1 mL EtOH, 7 mL 0.05 mg/mL DSS solution): Aggregated immediately
Observation (2 mg PVP40, 1 mL EtOH, 7 mL 0.05 mg/mL Mannitol solution): Aggregated immediately
Observation (2 mg PVP40, 1 mL EtOH, 7 mL 0.05 mg/mL NaOAc solution): Aggregated immediately
Observation (2 mg PVP40, 1 mL EtOH, 7 mL 0.05 mg/mL SDS solution): Aggregated immediately
Observation (2 mg PVP40, 1 mL EtOH, 7 mL 0.05 mg/mL citric acid solution): Aggregated immediately
Observation (2 mg PVP40, 1 mL EtOH, 7 mL 0.5 mg/mL BAC solution): Aggregated immediately
Observation: Aggregated within (2 mg PVP40, 1 mL EtOH, 7 mL 0.5 mg/mL DSS solution): Aggregated within 1 hour
Observation (2 mg PVP40, 1 mL EtOH, 7 mL 0.5 mg/mL Mannitol solution): Aggregated immediately
Observation: Aggregated within (2 mg PVP40, 1 mL EtOH, 7 mL 0.5 mg/mL NaOAc solution): Aggregated within 1 hour
Observation: Aggregated within (2 mg PVP40, 1 mL EtOH, 7 mL 0.5 mg/mL SDS solution): Aggregated within 1 hour
Observation (2 mg PVP40, 1 mL EtOH, 7 mL 0.5 mg/mL citric acid solution): Aggregated immediately
Observation (2 mg PVP40, 1 mL IPA, 4 mL water): Aggregated
Observation (2 mg PVP40, 1 mL MeOH, 4 mL water): Precipitation did not occur
Observation: Colloid, Stable for (2 mg PVPK90, 1 mL EtOH, 4 mL water): Colloid, Stable for 5 min
Observation (2 mg PVPK90, 1 mL IPA, 4 mL water): Aggregated
Observation (2 mg PVPK90, 1 mL MeOH, 4 mL water): Precipitation did not occur
Observation (2 mg Pluronic PE6800, 1 mL ACE, 4 mL water): Aggregated immediately
Observation (2 mg Pluronic PE6800, 1 mL EtOH, 4 mL water): Aggregated
Observation (2 mg Pluronic PE6800, 1 mL IPA, 4 mL water): Aggregated
Observation (2 mg Pluronic PE6800, 1 mL MeOH, 4 mL water): Cloudy immediately
Observation (2 mg Pluronic PE6800, 1 mL THF, 5 mL water): Aggregated
Observation (2 mg Pluronic PE10500, 1 mL ACE, 4 mL water): Aggregated immediately
Observation (2 mg Pluronic PE10500, 1 mL EtOH, 4 mL water): Aggregated
Observation (2 mg Pluronic PE10500, 1 mL IPA, 4 mL water): Aggregated
Observation (2 mg Pluronic PE10500, 1 mL MeOH, 4 mL water): Cloudy immediately
Observation (2 mg Pluronic PE10500, 1 mL THF, 4 mL water): Aggregated
Observation: Aggregated within (2 mg Soluplus, 1 mL ACE, 4 mL water): Aggregated within 5 min
Observation: Slightly opalescent colloid, stable for (2 mg Soluplus, 1 mL EtOH, 4 mL water): stable for 5 min
Observation (2 mg Soluplus, 1 mL MeOH, 4 mL water): Precipitation did not occur
Observation (2 mg Soluplus, 1 mL THF, 4 mL water): Aggregated
Observation (2 mg Solutol, 1 mL ACE, 4 mL water): Aggregated immediately
Observation (2 mg Solutol, 1 mL EtOH, 4 mL water): Aggregated
Observation (2 mg Solutol, 1 mL IPA, 4 mL water): Aggregated
Observation (2 mg Solutol, 1 mL MeOH, 4 mL water): Aggregated
Observation (2 mg Solutol, 1 mL THF, 4 mL water): Aggregated
Observation: Aggregated within (2 mg TPGS, 1 mL ACE, 4 mL water): Aggregated within 5 min
Observation (2 mg TPGS, 1 mL EtOH, 4 mL water): Aggregated
Observation (2 mg TPGS, 1 mL IPA, 4 mL water): Aggregated
Observation: Aggregated after (2 mg TPGS, 1 mL MeOH, 4 mL water): Aggregated after 25 min
Observation (2 mg TPGS, 1 mL THF, 4 mL water): Aggregated
Observation (2 mg Tetronic, 1 mL ACE, 4 mL water): Aggregated immediately
Observation (2 mg Tetronic, 1 mL EtOH, 4 mL water): Aggregated
Observation (2 mg Tetronic, 1 mL IPA, 4 mL water): Aggregated
Observation (2 mg Tetronic, 1 mL MeOH, 4 mL water): Cloudy immediately
Observation (2 mg Tetronic, 1 mL THF, 4 mL water): Aggregated
Observation: Aggregated within (3 mg Luviskol VA64, 1 mL EtOH, 0.0001M NaOH solution): Aggregated within 1 day
Observation: Stable for (3 mg Luviskol VA64, 1 mL EtOH, 0.001M NaOH solution): Stable for 3 days at RT
Observation: Stable for (3 mg Luviskol VA64, 1 mL EtOH, 0.01M NaOH solution): Stable for 3 days at RT
Observation: Stable for (3 mg Luviskol VA64, 1 mL EtOH, 0.1M NaOH solution): Stable for 3 days at RT
Observation (3 mg Luviskol VA64, 1 mL EtOH, 7 mL 0.05 mg/mL NaOAc solution): Aggregated immediately
Observation: Stable for (3 mg Luviskol VA64, 1 mL EtOH, 7 mL 0.5 mg/mL NaOAc solution): Stable for 3 days at RT
Observation (3 mg PVP10, 1 mL EtOH, 7 mL 0.05 mg/mL NaOAc solution): Aggregated immediately
Observation: Aggregated within (3 mg PVP10, 1 mL EtOH, 7 mL 0.5 mg/mL NaOAc solution): Aggregated within 1 hour
Observation (3 mg PVP40, 1 mL EtOH, 7 mL 0.05 mg/mL NaOAc solution): Aggregated immediately
Observation: Stable for (3 mg PVP40, 1 mL EtOH, 7 mL 0.5 mg/mL NaOAc solution): Stable for 1 day at RT
Observation (4 mg Luviskol VA64, 1 mL EtOH, 7 mL 0.05 mg/mL NaOAc solution): Aggregated immediately
Observation: Aggregated within (4 mg Luviskol VA64, 1 mL EtOH, 7 mL 0.5 mg/mL NaOAc solution): Aggregated within 1 day
Observation (4 mg PVP10, 1 mL EtOH, 7 mL 0.05 mg/mL NaOAc solution): Aggregated immediately
Observation: Aggregated within (4 mg PVP10, 1 mL EtOH, 7 mL 0.5 mg/mL NaOAc solution): Aggregated within 1 hour
Observation (4 mg PVP40, 1 mL EtOH, 7 mL 0.05 mg/mL NaOAc solution): Aggregated immediately
Observation: Aggregated within (4 mg PVP40, 1 mL EtOH, 7 mL 0.5 mg/mL NaOAc solution): Aggregated within 1 day
Observation (no stabilizer (—), 1 mL ACE, 4 mL water): Aggregated
Observation (no stabilizer (—), 1 mL EtOH, 4 mL water): Aggregated
Observation (no stabilizer (—), 1 mL IPA, 4 mL water): Aggregated
Observation (no stabilizer (—), 1 mL MeOH, 4 mL water): Aggregated
SMILES: CC(C)(C)c1cc(-c2cc(-c3ccc(C(=O)O)cc3)ccc2OCCO)ccc1N1CCCC1 [Compound A, 3″-tert-butyl-4′-(2-hydroxyethoxy)-4″-pyrrolidin-1-yl[1,1′;3′,1″]-terphenyl-4-carboxylic acid]
